Columns and labels:
[1] = Caco-2 assay (permeability PappAB, PappBA, efflux ratio); format: in vitro ADME; conditions: human, Caco-2, 10 μM test compound, pH 7.4; for efflux ratio at 90 min, 10 μM: efflux ratio PappBA/PappAB, read-out: Caco ER; for Papp A→B at 90 min, 10 μM: apical to basolateral
Method in brief: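 Bidirectional permeability (apical-to-basolateral and reverse) through polarized Caco-2 monolayers, BSA 0.25% on each side, 37 °C. Donor and receiver sampled at 0-90 min after 25-30 min preincubation, analysed by HPLC/MS/MS. Apparent permeabilities derived from transfer rate normalised to area and t=0 donor concentration; ER taken as PappBA over PappAB.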

[2] = system: KRAS G12V-dependent Ba/F3 cells; experiment: Ba/F3 proliferation assay, KRAS G12V; format: cell-based; conditions: Mus musculus, BaF3, 72 h, AlamarBlue;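 note: proliferation IC50 in KRAS G12V-dependent Ba/F3 cells read by AlamarBlue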
Method in brief: (§1)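 IL-3-independent Ba/F3 lines carrying retrovirally introduced KRAS G12C, G12D or G12V; puromycin withdrawn ~10 days before assay. Duplicate treatments, AlamarBlue fluorescence readout, curve-fit analysis.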

[3] = Metabolic (microsomal) stability assay, human liver microsomes (HLM); format: in vitro ADME; conditions: predicted clearance as percent of liver blood flow, 1 μM
Method in brief: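 LC-MS/MS tracked parent disappearance at 0, 5, 15, 30 and 60 min in NADPH-initiated incubations with 1 mg/mL human microsomal protein and 1 μM compound at 37°C, pH 7.5. First-order fits gave intrinsic clearance, which was scaled up and reported as % QH. NADPH-free controls were also run.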

SK-CO-1 cells = experiment: SK-CO-1 CTG proliferation assay (120 h) (CRC, G12V); format: cell-based; conditions: Homo sapiens; SK-CO-1 cells (CRC, G12V), CTG 120 h
Method in brief: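 Compound exposure lasted 120 h in KRAS G12V SK-CO-1 cells seeded overnight at 500 cells/well in 10% FCS EMEM. CellTiter-Glo RLU normalised to DMSO wells gave percent viability, and a four-parameter model fit yielded IC50.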

[4] = system: KRAS G12C-dependent Ba/F3 cells; experiment: Ba/F3 proliferation assay, KRAS G12C; format: cell-based; conditions: Mus musculus, BaF3, 72 h, AlamarBlue
Method in brief: as §1

SMILES | efflux ratio at 90 min, 10 μM [1] | IC50 [2] [µM] | HLM QH [3] [%] | IC50 (SK-CO-1 cells) [µM] | IC50 [4] [µM] | Papp A→B at 90 min, 10 μM [1] [×10⁻⁶ cm/s]
C[C@H](Oc1cc(N2CCN(C)C3(CCOC3)C2)nc(-c2noc3c2CCC[C@@]32CCCc3sc(N)c(C#N)c32)n1)[C@@H]1C[C@@H](F)CN1C (stereo partly drawn) [II-151] | 2 | 0.655 | 59 | 1.36 | 0.393 | –
CO[C@@H]1C[C@@H]([C@H](C)Oc2cc(N3CCN(C)C4(CC4)C3)nc(-c3noc4c3CCC[C@@]43CCCc4sc(N)c(C#N)c43)n2)N(C)C1 [II-152] | 16.8 | 1.19 | 58 | 0.955 | 1.29 | 3.1
CO[C@@H]1C[C@@H]([C@H](C)Oc2cc(N3CCN(C)C4(COC4)C3)nc(-c3noc4c3CCC[C@@]43CCCc4sc(N)c(C#N)c43)n2)N(C)C1 [II-153] | 30 | 2.38 | 58 | 0.872 | 1.56 | 1.2
C[C@H](Oc1nc(-c2noc3c2CCC[C@@]32CCCc3sc(N)c(C#N)c32)nc(N2CCNC3(CC3)C2)c1F)[C@@H]1C[C@@H](F)CN1C [II-155] | 2.9 | 0.185 | 70 | 0.263 | 0.169 | –
C[C@H](Oc1nc(-c2noc3c2CCC[C@@]32CCCc3sc(N)c(C#N)c32)nc(N2CCNC3(CC3)C2)c1Cl)[C@@H]1C[C@@H](F)CN1C [II-156] | 1.8 | 0.271 | 65 | 0.39 | 0.353 | –
C[C@H](Oc1nc(-c2noc3c2CCC[C@@]32CCCc3sc(N)c(C#N)c32)nc(N2C[C@H](C)NC3(CC3)C2)c1F)[C@@H]1C[C@@H](F)CN1C [II-157] | 0.7 | 0.258 | 69 | 0.339 | 0.244 | –
C[C@@H]1CN(c2nc(-c3noc4c3CCC[C@@]43CCCc4sc(N)c(C#N)c43)nc(O[C@@H](C)[C@@H]3C[C@@H](F)CN3C)c2F)CC2(CC2)N1 [II-158] | 0.4 | 0.108 | 73 | 0.374 | 0.135 | –
C[C@@H]1CN(c2cc(O[C@@H](C)[C@@H]3CCCN3C)nc(-c3noc4c3CCC[C@@]43CCCc4sc(N)c(C#N)c43)n2)CCN1 [II-161] | 47.6 | 0.971 | <24 | 1.02 | 0.91 | 0.4
C[C@H](Oc1cc(N2CCN[C@@H](C)C2)nc(-c2noc3c2CCC[C@@]32CCCc3sc(N)c(C#N)c32)n1)[C@@H]1CCCN1C [II-162] | 57.6 | 0.574 | <24 | 0.98 | 0.526 | 0.3
C[C@H](Oc1cc(C2=CCNCC2)nc(-c2noc3c2CCC[C@@]32CCCc3sc(N)c(C#N)c32)n1)[C@@H]1CCCN1C [II-164] | 138 | 0.133 | <24 | 0.287 | 0.24 | 0.1
C[C@H](Oc1cc(N2CCNC3(CC3)C2)nc(-c2noc3c2CCC[C@@]32CCCc3sc(N)c(C#N)c32)n1)[C@@H]1C[C@@H](F)CN1C [II-165] | 2.5 | 0.121 | 61 | 0.529 | 0.109 | –
C[C@H](Oc1cc(N2C[C@@H]3[C@@H](N)[C@@H]3C2)nc(-c2noc3c2CCC[C@@]32CCCc3sc(N)c(C#N)c32)n1)[C@@H]1CCCN1C [II-167] | 82.1 | 0.879 | <24 | 1.34 | 0.884 | 0.3
C[C@H](Oc1cc(-n2cc3c(n2)CNC3)nc(-c2noc3c2CCC[C@@]32CCCc3sc(N)c(C#N)c32)n1)[C@@H]1CCCN1C [II-168] | 39.5 | 0.026 | 62 | 0.154 | 0.062 | 1
CC(C)N1CCCN(c2cc(-n3ccnc3)nc(-c3noc4c3CCC[C@@]43CCCc4sc(N)c(C#N)c43)n2)[C@@H](C)C1 [II-169] | 9.6 | 0.061 | 39 | 0.316 | 0.107 | –
CC(C)N1CCCN(c2cc(-c3ccn(C)n3)nc(-c3noc4c3CCC[C@@]43CCCc4sc(N)c(C#N)c43)n2)[C@@H](C)C1 [II-170] | 7 | 0.017 | 33 | 0.121 | 0.026 | 3.3
C[C@H](Oc1cc(N2CCN(C)C3(CC3)C2)nc(-c2noc3c2CCC[C@@]32CCCc3sc(N)c(C#N)c32)n1)[C@@H]1CCCN1C [II-171] | 8.2 | 0.426 | 32 | 1.53 | 0.232 | 3
C[C@H](Oc1cc(N2C[C@H](C)N(C)[C@@H](C)C2)nc(-c2noc3c2CCC[C@@]32CCCc3sc(N)c(C#N)c32)n1)[C@@H]1CCCN1C [II-173] | 19.9 | 0.678 | <24 | 0.805 | 0.296 | 8.7
C[C@H](Oc1cc(-n2cc3c(n2)CN(C)C3)nc(-c2noc3c2CCC[C@@]32CCCc3sc(N)c(C#N)c32)n1)[C@@H]1CCCN1C [II-174] | 5.8 | 0.071 | 39 | 0.385 | 0.103 | –
CC(C)NC(=O)Cc1ccn(-c2cc(O[C@@H](C)[C@@H]3CCCN3C)nc(-c3noc4c3CCC[C@@]43CCCc4sc(N)c(C#N)c43)n2)n1 [II-182] | 5.5 | 0.003 | 35 | 0.009 | 0.005 | 7.1
CO[C@H]1CCN(C)[C@@H]1[C@H](C)Oc1cc(N2CCNC3(CC3)C2)nc(-c2noc3c2CCC[C@@]32CCCc3sc(N)c(C#N)c32)n1 [II-184] | 2.3 | 0.155 | 60 | 0.249 | 0.098 | –
CO[C@H]1CCN(C)[C@@H]1[C@H](C)Oc1cc(N2CCN(C)C3(CC3)C2)nc(-c2noc3c2CCC[C@@]32CCCc3sc(N)c(C#N)c32)n1 [II-186] | 0.8 | 0.321 | 49 | 0.88 | 0.192 | 21
CO[C@@H]1C[C@@H]([C@H](C)Oc2cc(N3CCNC4(CC4)C3)nc(-c3noc4c3CCC[C@@]43CCCc4sc(N)c(C#N)c43)n2)N(C)C1 [II-187] | 4.6 | 0.225 | 46 | 0.457 | 0.133 | 5.4
C[C@H](Oc1cc(-n2ccc(C3(O)COC3)n2)nc(-c2noc3c2CCC[C@@]32CCCc3sc(N)c(C#N)c32)n1)[C@@H]1CCCN1C [II-189] | 5.8 | 0.008 | <24 | 0.045 | 0.009 | 7.9

Source: patent publication US20240174690A1, “ANNULATED 2-AMINO-3-CYANO THIOPHENES AND DERIVATIVES FOR THE TREATMENT OF CANCER” (BOEHRINGER INGELHEIM INTERNATIONAL GMBH, priority 2021, published 2024)
